Source: PMC11040670, “Mechanistic and Kinetic Insights into Cellular Uptake of Biomimetic Dinitrosyl Iron Complexes and Intracellular Delivery of NO for Activation of Cytoprotective HO-1” (JACS Au, 2024)
Where “and” joins values, the source holds several entries; their conditions need not be identical. Identical values can stand only once. Marks after values point to notes of the source that are not given here.

Experiments:
N2a = assay: Whole-cell EPR: cellular uptake and intracellular formation/decomposition of mononuclear DNIC in N2a; assay type: cell-based, mouse; conditions: for tmax for cellular uptake and intracellular transformation (whole-cell EPR): normoxia, 100 μM DNIC–COOH or 10 μM DNIC–COOMe
Protocol: Cellular uptake of DNIC–COOH and intracellular formation/decomposition of mononuclear DNICs in MSC/N2a/HCEC cells were investigated using EPR spectroscopy. Briefly, cells were seeded into two (or one) 100 mm dish(es) at a density of 2 × 10^6 cells/dish and incubated at 37 °C overnight. On the next day, cells were treated with 100 μM of DNIC–COOH (or 100 μM of DNIC–COOH to N2a and 75 μM of DNIC–COOH to HCEC) and incubated for 0, 0.5, 1, 2, 3, 4, 8, and 24 h, respectively. After removal of the supernatant solution, cells were washed with DPBS before addition of 1 mL of trypsin (0.05%)/EDTA (0.53 mM) and incubation for 5 min at 37 °C. After the obtained cell suspension solutions from two 100 mm dishes were combined and centrifuged at 100g for 5 min, the supernatant was removed before addition of 100 μL of αMEM to DNIC-treated MSC (or MEM to DNIC-treated N2a and HSFM to DNIC-treated HCEC). This solution was then transferred into EPR quartz tube and frozen in N2(l) before the EPR measurements. For each measured EPR spectrum, double integration was executed to obtain the integrated EPR intensity under each condition. Moreover, time-dependent decay of integrated EPR signal intensity after treatment of DNIC–COOH was fit to pseudo-first-order kinetics in order to determine the intracellular half-life for EPR-active mononuclear DNIC. Three independent experiments were executed to measure the average half-life for intracellular decomposition of EPR-active mononuclear DNIC after treatment with DNIC–COOH at 37 °C. On the other hand, at the time point with maximum integrated EPR signal intensity, spin quantitation of intracellular EPR-active DNICs was performed using mononuclear DNIC [PPN][(NO)2Fe(S5)] as a standard according to the methodology used in the previous work.[50] Cellular uptake of DNIC–COOMe (2.5 μM to MSC, 10 μM to N2a, or 1 μM to HCEC) and intracellular formation/decomposition of EPR-active mononuclear DNICs were investigated using EPR spectroscopy in a similar manner.
Studies of cellular uptake mechanisms were investigated using EPR spectroscopy in combination with pretreatments of alternative inhibitors. After the MSC cells were seeded into two (or one) 100 mm dish(es) at a density of 2 × 10^6 cells/dish and incubated at 37 °C overnight, sequential treatments of 50 μM of NEM for 0.5 h and 100 μM of DNIC–COOH for 2 h were performed before the treated MSC cells were collected for EPR measurement following the procedure described above. […]

metMb [1] = molecular target: T1, metMb (Equus caballus, UniProt P68082); assay: Transfer of NO− to metMb yielding MbNO (UV–vis); assay type: biochemical; conditions: for reaction time for complete conversion of metMb into MbNO: metMb 5 μM/Cys 200 μM, generated [(NO)2Fe(SR)(SCys)]n−, phosphate buffer (pH 7.4), anaerobic; for change of UV–vis absorption bands of metMb (NO−-transfer): metMb in the presence of BSA (50 mg/mL)
T1 construct: purchased Sigma
T1 sequence (P68082 2-154 limits assumed): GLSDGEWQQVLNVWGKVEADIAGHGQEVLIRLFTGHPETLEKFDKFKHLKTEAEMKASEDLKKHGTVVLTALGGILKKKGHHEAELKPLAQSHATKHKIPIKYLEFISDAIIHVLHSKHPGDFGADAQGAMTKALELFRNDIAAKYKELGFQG
Protocol: After addition of 30 μL of 500 μM stock solution of DNIC–COOH (in DMSO) to a 4 mL quartz cuvette containing 5 μM metMb and 200 μM Cys in 3 mL of 25 mM PBS (pH 7.4), UV–vis spectra for this mixture solution were measured every 30 min. Transformation of […] into MbNO was achieved after reaction for 4 h based on the complete shift of UV–vis absorption bands from (410, 502, and 629) nm to (419, 548, and 578) nm.
Reactions of (a) 5 μM of DNIC–COOMe with 5 μM of metMb in the presence of 200 μM of Cys, (b) 5 μM of DNIC–COOH/DNIC–COOMe with 5 μM of deoxyMb in the presence of 200 μM of Cys, and (c) 5 μM of DNIC–COOH/DNIC–COOMe with 5 μM of metMb in the presence of 50 mg/mL BSA were performed under a similar manner.

metMb [2] = molecular target: T1, metMb; parameters: method as in PMID 37533298; conditions: dinuclear DNIC, no Cys; cited from earlier work
deoxyMb = system: deoxyMb; parameters: method as in PMID 37533298; conditions: dinuclear DNIC, no Cys; cited from earlier work
HMOX1 gene = assay: Activation of HMOX1/HO-1, stated jointly for MSC/N2a/HCEC (incl. PTIO/ODQ); assay type: cell-based
Protocol: After treatment of (1) 100 μM of DNIC–COOH to MSC, (2) 100 μM of DNIC–COOH to N2a, (3) 75 μM of DNIC–COOH to HCEC, (4) 2.5 μM of DNIC–COOMe to MSC, (5) 10 μM of DNIC–COOMe to N2a, and (6) 1 μM of DNIC–COOMe to HCEC, respectively, the total RNA of the treated cells was extracted using TRIzol Reagent (Thermo Fisher Scientific) in order to assess the time-dependent change in the mRNA level of HO-1. After the synthesis of complementary DNA with the High-Capacity Reverse Transcription Kit, qPCR was conducted using Power SYBR Green PCR Master Mix with the StepOnePlus Real-Time PCR System (Thermo Fisher Scientific). The primer sequences were as follows: HMOX1 forward 5′-[…]-3′ and reverse 5′-[…]-3′; RPL13A forward 5′-[…]-3′ and reverse 5′- […]-3′; GAPDH forward 5′-[…]-3′ and reverse 5′-[…]-3′. The relative mRNA levels of target genes were determined by a comparative threshold cycle method and normalized to that of RPL13A (or GAPDH). The mRNA level of HO-1 in the MSC, N2a, and HCEC cells, respectively, that received the (1) sequential treatments of 1H-[1,2,4]oxadiazolo-[4,3-a]quinoxalin-1-one (ODQ, 10 μM for 1 h) and DNIC–COOH (100 μM in MSC for 3 h, 100 μM in N2a for 10 h, and 75 μM in HCEC for 6 h) or (2) cotreatment of 2-phenyl-4,4,5,5-tetramethylimidazoline-1-oxyl-3-oxide ([…]) and DNIC–COOH (100 μM in MSC for 3 h, 100 μM in N2a for 10 h, and 75 μM in HCEC for 6 h) was also evaluated under a similar procedure.

| SMILES | relative whole-cell EPR signal intensity at gav = 2.03 (control = 100%) (N2a; CPZ-treated N2a) [%] | relative whole-cell EPR signal intensity at gav = 2.03 (control = 100%) (N2a; MβCD-treated N2a) [%] | tmax for cellular uptake and intracellular transformation (whole-cell EPR) (N2a; N2a) [h] | reaction time for complete conversion of metMb into MbNO (metMb [1]) | reaction time for complete conversion of metMb into MbNO (metMb [1]; listed as DNIC-COOH) [h] | change of UV–vis absorption bands of metMb (NO−-transfer) (metMb [1]) | reactivity toward the Fe3+-porphyrin center in metMb (metMb [2]) | nitrosylation of the Fe2+-porphyrin center in deoxyMb (deoxyMb) | activation of cytoprotective HO-1 (HMOX1 gene; at t = 3–10 h (abstract)) | effect on transcriptional activation of HMOX1 gene by DNIC–COOH (HMOX1 gene; cotreatment of PTIO to MSC/HCEC) | effect on transcriptional activation of HMOX1 gene by DNIC–COOH (HMOX1 gene; higher concentration of PTIO (100 μM) to N2a) | effect on transcriptional activation of HMOX1 gene by DNIC–COOH (HMOX1 gene; pretreatment of ODQ to MSC/N2a/HCEC) | relative whole-cell EPR signal intensity at gav = 2.03 (control = 100%) (N2a; N2a, native FBS replaced with 5% NEM-treated FBS) [%] | relative whole-cell EPR signal intensity at gav = 2.03 (control = 100%) (N2a; N2a, pretreatment of NEM 0.5 h, then DNIC–COOMe 0.5 h, reduction) [%] | reaction time for complete conversion of metMb into MbNO (metMb [1]; listed as DNIC-COOMe) [h] |
| --- | --- | --- | --- | --- | --- | --- | --- | --- | --- | --- | --- | --- | --- | --- | --- |
| O=[N][Fe]1([N]=O)[SH](CCC(=O)O)[Fe]([N]=O)([N]=O)[SH]1CCC(=O)O (stereo not drawn) [DNIC–COOH, [(NO)2Fe(μ-SCH2CH2COOH)2Fe(NO)2]] | 77.6 ± 22.5 | 81.7 ± 18.2 | 2 | 4 h and 4.0 ^f h | 4.0 | no change | inert | efficient nitrosylation | 50–150 fold change | no significant perturbation | reduced transcriptional activation | no significant perturbation |  |  |  |
| COC(=O)CC[SH]1[Fe]([N]=O)([N]=O)[SH](CCC(=O)OC)[Fe]1([N]=O)[N]=O (stereo not drawn) [DNIC–COOMe, [(NO)2Fe(μ-SCH2CH2COOCH3)2Fe(NO)2]] |  |  | 0.5 | 4.0 ^f h |  | no change |  |  |  |  |  |  | 116.2 ± 33.6 | 20.1 ± 9.7 | 4.0 |
